This is an account of results in patent US5106834A, “Linear free-sulfhydryl-containing oligopeptide derivatives as antihypertensive agents” (G. D. Searle & Co., priority 1988, dated 1992).

Positions of bridges follow the written chain, without caps; N, C: chain ends. Non-standard residues stand in square brackets, D forms with d. Residues, ends and D or L forms follow the SMILES beside them. No end group written: not given here. Cha = N[C@@H](CC1CCCCC1)C(=O)O; Pen = CC(C)(S)[C@H](N)C(=O)O

In the assay the test system is rabbit aortic rings.

Take `CC[C@H](C)[C@@H]1NC(=O)[C@H](CCCNC(=N)N)NC(=O)[C@H](CC(=O)O)NC(=O)[C@H]([C@@H](C)CC)NC(=O)[C@H](CCCNC(=N)N)NC(=O)CNC(=O)CNC(=O)[C@H](Cc2ccccc2)NC(=O)[C@@H](NC(=O)[C@H](CO)NC(=O)[C@@H](N)CO)CSSC[C@@H](C(=O)N[C@@H](CC(N)=O)C(=O)N[C@@H](CO)C(=O)N[C@@H](Cc2ccccc2)C(=O)N[C@@H](CCCNC(=N)N)C(=O)N[C@@H](Cc2ccc(O)cc2)C(=O)O)NC(=O)CNC(=O)[C@H](CC(C)C)NC(=O)CNC(=O)[C@H](CO)NC(=O)[C@H](CCC(N)=O)NC(=O)[C@H](C)NC(=O)CNC1=O` [ANP-(103-126), ATRIOPEPTIN III] (H-SSCFGGRIDRIGAQSGLGCNSFRY-OH; disulfide 3-19): where the note is “read-out: EC50 in the rabbit aorta, relaxation of norepinephrine precontracted rings, n = 8”, the EC50 (in general, the concentration needed to bring the measured effect to its halfway point) was 2.3 ± 1.6 nM.

For the molecule [Pen][Cha]GRIDRIG-NH2 [Peptide No. 6], the “Relative Potencies to ANP-(103-126), Rabbit Aorta” value (relaxation of norepinephrine (50 nM) precontracted rings, EC50 compared with ANP-(103-126)) was 0.010.
